The record followed here is patent US7504411B2, “2,3,6-Trisubstituted-4-pyrimidone derivatives” (Mitsubishi Tanabe Pharma Corporation, priority 2003, dated 2009).

Structures are written as SMILES.

In the experiment the target is T1, bovine cerebral TPK1 (Bos taurus, UniProt A0A3Q1MT31).
T1 construct: Phosphorylation by Bovine Cerebral TPK1; from tissue; host or cells: bovine brain (cerebrum)
T1 sequence (A0A3Q1MT31 1-419): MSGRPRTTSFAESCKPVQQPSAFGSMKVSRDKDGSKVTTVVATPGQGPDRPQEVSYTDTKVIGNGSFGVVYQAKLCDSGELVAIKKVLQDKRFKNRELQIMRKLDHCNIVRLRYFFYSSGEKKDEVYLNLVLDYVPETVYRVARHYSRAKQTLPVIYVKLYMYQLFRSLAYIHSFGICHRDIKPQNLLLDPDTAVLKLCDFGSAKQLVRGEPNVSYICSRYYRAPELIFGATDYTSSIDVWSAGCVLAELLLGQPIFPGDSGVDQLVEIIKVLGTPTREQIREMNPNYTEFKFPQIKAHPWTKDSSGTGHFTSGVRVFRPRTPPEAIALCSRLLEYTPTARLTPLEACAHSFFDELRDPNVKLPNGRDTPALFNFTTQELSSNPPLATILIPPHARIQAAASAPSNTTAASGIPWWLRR
Nature of the experiment: Inhibitory activity against P-GS1 phosphorylation by bovine cerebral TPK1. Format: biochemical. To be noted: 41.7 μM [γ-32P]ATP, 25° C., 2 hours. The protocol:
Inhibitory Activity of the Medicament of the Present Invention against P-GS1 Phosphorylation by Bovine Cerebral TPK1
A mixture containing 100 mM MES-sodium hydroxide (pH 6.5), 1 mM magnesium acetate, 0.5 mM EGTA, 5 mM β-mercaptoethanol, 0.02% Tween 20, 10% glycerol, 12 μg/ml P-GS1, 41.7 μM [γ-^32P] ATP (68 kBq/ml), bovine cerebral TPK1 and a compound shown in Table (a final mixture contained 1.7% DMSO deriving from a solution of a test compound prepared in the presence of 10% DMSO) was used as a reaction system. The phosphorylation was started by adding ATP, and the reaction was conducted at 25° C. for 2 hours, and then stopped by adding 21% perchloric acid on ice cooling. The reaction mixture was centrifuged at 12,000 rpm for 5 minutes and adsorbed on P81 paper (Whatmann), and then the paper was washed four times with 75 mM phosphoric acid, three times with water and once with acetone. The paper was dried, and the residual radioactivity was measured using a liquid scintillation counter.
By IC50 is commonly meant the concentration at which inhibition is half-maximal. Low values mean greater potency, high ones weaker potency. In the case of `Cn1c(N2CCNC(c3ccccc3)C2)nc(-c2ccncc2)cc1=O` (stereo not drawn) [XA361], half-maximal inhibition (IC50) was put at 18 nM. Then `Cn1c(N2CCCC(C#N)(c3ccccc3)C2)nc(-c2ccncc2)cc1=O` (stereo not drawn) [XB80], with 230 nM; and `COc1cc(F)ccc1C1CN(c2nc(-c3ccncn3)cc(=O)n2C)CCN1Cc1ccccc1` (stereo not drawn) [YA0864], with 216 nM.
